This test deals with functional muscle tissue of human cardiac tissue. The experiment in a line: Cardiac field potentials of functional muscle tissue measured with flexible electrode array. Format: cell-based. As to conditions: escalating doses of isoproterenol; cardiac field potentials detected by microelectrode array; FIG. 27, 28. An excerpt:
A cell seeding well attached to a second portion of a fluidic device including a gelatin flexible substrate with a micropatterned top surface on a COC base was used to culture a functional muscle tissue of human cardiac tissue on the flexible substrate and to separately evaluate the functional muscle tissue prior to assembling the rest of the fluidic device. FIG. 26 is an image of the cell seeding well 400 attached to the second portion 192 of the fluidic device. The top of the cell seeding well 400 was wrapped in a gas permeable membrane. […] The cultured functional muscle tissue on the flexible substrate was exposed to escalating doses of isoproterenol, a beta-adrenergic agonist, and resulting cardiac field potentials were measured using the flexible electrode array. FIG. 27 is a graph of the measured cardiac field potentials 610, 620, […], 640, 650, 660, 670 as a function of time detected by the microelectrode array for various concentrations of isoproterenol. FIG. 28 is a graph of the measured QT interval shortening as a function of the dose of isoproterenol. […] Thus, the modular nature of the fluidic device enabled the flexible substrate on the second portion of the device to be easily seeded and cultured to form the functional muscle tissue, and enabled the functional muscle tissue to be evaluated prior to assembly of the full fluidic device.

The values below come from patent US20180221874A1, “FLUIDIC DEVICES INC[…] TISSUE AND METHODS OF USE” (President and Fellows of Harvard College, priority 2015, published 2018).

Entries after “also recorded” stand apart in the source; their conditions may differ.

On to `CC(C)NCC(O)c1ccc(O)c(O)c1` (stereo not shown) [isoproterenol], for which the “QT interval as a function of isoproterenol dose” value was “shortening QT interval; also recorded: QT shortening with increased doses”.
